Source: patent US11541237B2, “Methods for improving shoulder range of motion and functionality” (priority 2013, dated 2023)

How the values were obtained:
[1] = tested on: A (delta) and C sensory fibers; settings: cited from earlier work; for sensory blocking properties: compared with the corresponding R (dextro)-enantiomers
suprascapular nerve [2] = assay: Fanlike injection in the vicinity of the suprascapular nerve, patient with pain and decreased range of motion after rotator cuff repair (Example 1); format: in vivo, human; settings: many months after torn rotator cuff repair, lidocaine 1% (3 ml)
Method: A patient with pain and decreased range of motion for many months following repair of a torn rotator cuff, was treated using a fanlike injection of lidocaine 1% (3 ml) merely in the vicinity of the suprascapular nerve, hitting small fibers in the area.
This block differs from classic suprascapular block in that the area around the nerve was targeted and treated, rather than the nerve itself. This procedure was easier to perform than trying to block the suprascapular nerve directly, which would have been much more difficult to target or specific, direct treatment. In terms of neurostimulation, or blocking with energy sources such as light, laser, infrasound or electricity, it means that transcutaneous methods can work well by targeting the area around a major nerve, or merely within its general area of innervation, and not necessarily the nerve itself.

[3] = intranasally administered; cited from earlier work
suprascapular nerve [4] = assay: Direct suprascapular injection and subsequent fanlike injection, patient with CRPS of left arm and hand with frozen shoulder syndrome (Example 7); format: in vivo, human; settings: lidocaine 1% (4 ml) together with methylprednisolone acetate (10 mg), direct suprascapular then fanlike injection, a few treatment sessions
Text: A patient had severe CRPS of the left arm and hand with frozen shoulder syndrome and severe edema, allodynia coldness and nail changes involving their left hand for over 18 months. Their condition is shown in the photographs of FIGS. 6 and 7. They failed all therapies to the time of presentation.

saphenous nerve = assay: Saphenous nerve injection, patient with severe leg and foot pain due to surgical trauma (Example 2); format: in vivo, human; settings: ropivacaine 0.25% (5 ml)
Method: A patient with severe leg and foot pain for several years due to prior surgical trauma resulting from an initial bunionectomy and other follow-up surgeries was treated by a saphenous nerve injection of ropivacaine 0.25% (5 ml) after exquisite tenderness was noted on palpation of the saphenous nerve greater than 14 cm proximal to the level of their foot trauma. However, much of their symptomatology was in the distribution of other nerves. Indeed, they had motor dysfunction of the toes and their saphenous nerve is a purely sensory nerve. […] They could walk like they had not in many years.

[5] = cited from earlier work
migraine = settings: direct application to region of nasal epithelium overlying the SPG using a cotton swab, versus drip and spray methods; cited from earlier work
radial nerve = assay: Injection in fanlike distribution of the radial nerve, patient with CRPS of right hand (Example 3); format: in vivo, human; settings: single treatment, bupivacaine 0.25% (3 ml)
Text: A patient with CRPS and severe pain, including pins and needles sensation in their right hand for over 20 years, presented with these symptoms and major discoloration in their right arm due to compartment syndrome many years ago and could barely open and close their fist.

[6] = tested on: Supratrochlear nerve / occipital nerves with SPG; assay: Injection of supratrochlear or occipital nerves combined with SPG block; format: in vivo, human
Text: Another aspect of the invention is the combination of stimulation of SPG with branches of Trigeminal nerves, or occipital nerves. There is known C-2 and 3 connection with Trigeminal nerve and SPG and likely with C1.

[7] = tested on: facial pain / facial neuropathies; assay: Intranasal local anesthetic in patients with facial pain after facial trauma (Examples 4-6); format: in vivo, human
Method: A patient had severe facial pain following a large metal beam impact which left them with facial neuropathies and headache that adversely affected their ability to eat and speak was treated with intranasal bupivacaine 0.5% (4 ml). […] They improved with subsequent repeat treatments and was able to perform job and daily activities normally. […] A patient with severe facial pain resulting from being hit in the face with a pipe that caused four facial fractures, for seven years had numbness in certain areas of their face and severe pain in the area of their left eye, as well as generalized facial and head pain. They were treated with intranasal bupivacaine 0.5% (4 ml). […] A patient had sustained facial nerve injuries from a close range gunshot wound to the face. They were in excruciating pain and could not speak or eat without severe duress. […] They had been in agony for over 5 years previous to this treatment.

[8] = Example 4, patient, metal beam impact, intranasal bupivacaine 0.5% (4 ml)

CCCN1CCCC[C@H]1C(=O)Nc1c(C)cccc1C (single isomer, unassigned) [S (levo)-enantiomer of ropivacaine]
sensory blocking properties [1]: better sensory blocking properties

CCN(CC)CC(=O)Nc1c(C)cccc1C [lidocaine]
pain and range of motion (suprascapular nerve [2]): remarkable improvement in pain and range of motion | duration of action [3]: shorter than about one hour | symptoms and findings of CRPS (frozen shoulder, edema, allodynia, coldness, nail changes) (suprascapular nerve [4]): completely reversed these symptoms and findings

CCCN1CCCC[C@H]1C(=O)Nc1c(C)cccc1C [ropivacaine]
relief of pain (saphenous nerve): almost complete relief of pain | sensation and strength in the distribution of other peripheral nerves, including the peroneal nerves (saphenous nerve): normalized sensation and strength | time to reported pain relief (saphenous nerve): ≤ 10 min | cardiovascular and central nervous system toxicity ([5]; compared with bupivacaine): lower cardiovascular and central nervous system toxicity than bupivacaine | systemic toxicity profile ([5]; compared with other similar relatively long acting potent local anesthetics): better systemic toxicity profile | block of nerve fibers such as A (delta) and C sensory fibers versus motor neurons ([1]; compared with bupivacaine): more preferentially than other neurons such as motor neurons | inhibition of migraine (migraine): most rapid and most effective inhibition of migraine

CCCCN1CCCCC1C(=O)Nc1c(C)cccc1C (stereo not drawn) [bupivacaine]
symptoms and hand function (radial nerve; patient with CRPS over 20 years, fanlike distribution of radial nerve): felt dramatically better and could open and close their hand and make and maintain a fist | neurotrophic findings of decreased temperature, edema, allodynia, discoloration and severe restriction of range of motion (radial nerve; patient with CRPS): decreased dramatically | result of subsequent SPG block ([6]; injection of bupivacaine 0.5% to the Supratrochlear nerve): better result with SPG block subsequently | headache ([6]; injection of occipital nerves with 0.5%, with SPG block): headache was further decreased with SPG block | relief of pain [7, 8]: almost complete relief of pain | time to reported pain relief [7, 8]: ≤ 3 min | ability to open mouth, eat and speak ([7]; Example 4, patient, intranasal bupivacaine 0.5% (4 ml)): could open their mouth wide, eat normally and could speak for normal periods of time and at normal volume | time to reported pain relief ([7]; Example 5, patient, four facial fractures, pain for seven years, intranasal bupivacaine 0.5% (4 ml)): ≤ 1 min | relief of pain ([7]; Example 5, patient, intranasal bupivacaine 0.5% (4 ml)): complete relief of pain | pain management ([7]; Example 6, patient, gunshot wound to the face, intranasal bupivacaine 0.5% (3-4 ml) monthly, several years follow up): manages their pain well | adverse sequela ([7]; Example 6, intranasal bupivacaine 0.5% (3-4 ml) monthly, several years follow up): no adverse sequela

CCCCN1CCCC[C@H]1C(=O)Nc1c(C)cccc1C [S (levo)-enantiomer of bupivacaine]
physiological toxicity ([5]; compared with the corresponding R (dextro)-enantiomers): lower physiological toxicity | sensory blocking properties [1]: better sensory blocking properties
